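Each compound was tested at five concentrations against cells in 96-well plates for 48 hours. The concentration for 50% growth inhibition is given as GI50. TGI marks complete inhibition of growth.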
Columns and labels:
Test in all cases: NCI tumour cell line growth inhibition, 48 h
DU-145 prostate = tested on: DU-145 prostate
SF-539 CNS = tested on: SF-539 CNS
TK-10 renal = tested on: TK-10 renal
MDA-MB-231 breast = tested on: MDA-MB-231 breast
BT-549 breast = tested on: BT-549 breast
A498 renal = tested on: A498 renal
MOLT-4 leukemia = tested on: MOLT-4 leukemia
RPMI-8226 leukemia = tested on: RPMI-8226 leukemia
SW-620 colon = tested on: SW-620 colon
UACC-62 melanoma = tested on: UACC-62 melanoma
UO-31 renal = tested on: UO-31 renal
KM12 colon = tested on: KM12 colon
MCF7 breast = tested on: MCF7 breast
LOX IMVI melanoma = tested on: LOX IMVI melanoma
NCI/ADR-RES ovarian = tested on: NCI/ADR-RES ovarian
MDA-MB-435 = tested on: MDA-MB-435
SNB-19 CNS = tested on: SNB-19 CNS
UACC-257 melanoma = tested on: UACC-257 melanoma
ACHN renal = tested on: ACHN renal
SNB-75 CNS = tested on: SNB-75 CNS
MALME-3M melanoma = tested on: MALME-3M melanoma
COLO 205 colon = tested on: COLO 205 colon
HS 578T breast = tested on: HS 578T breast
EKVX NSCLC = tested on: EKVX NSCLC
NCI-H226 lung = tested on: NCI-H226 lung
U251 CNS = tested on: U251 CNS
A549 NSCLC = tested on: A549 NSCLC
NCI-H460 lung = tested on: NCI-H460 lung
CAKI-1 renal = tested on: CAKI-1 renal
HT29 colon = tested on: HT29 colon
OVCAR-3 ovarian = tested on: OVCAR-3 ovarian
SK-MEL-5 melanoma = tested on: SK-MEL-5 melanoma
OVCAR-4 ovarian = tested on: OVCAR-4 ovarian
OVCAR-5 ovarian = tested on: OVCAR-5 ovarian
K-562 leukemia = tested on: K-562 leukemia
SR leukemia = tested on: SR leukemia
HCC-2998 colon = tested on: HCC-2998 colon
HCT-116 colon = tested on: HCT-116 colon
RXF 393 renal = tested on: RXF 393 renal
SK-OV-3 ovarian = tested on: SK-OV-3 ovarian
CCRF-CEM leukemia = tested on: CCRF-CEM leukemia
SN12C renal = tested on: SN12C renal
NCI-H23 lung = tested on: NCI-H23 lung
IGROV1 ovarian = tested on: IGROV1 ovarian
NCI-H522 lung = tested on: NCI-H522 lung
SF-268 CNS = tested on: SF-268 CNS
HOP-92 NSCLC = tested on: HOP-92 NSCLC
HCT-15 colon = tested on: HCT-15 colon
OVCAR-8 ovarian = tested on: OVCAR-8 ovarian
T-47D breast = tested on: T-47D breast
HOP-62 NSCLC = tested on: HOP-62 NSCLC
786-0 renal = tested on: 786-0 renal
HL-60(TB) leukemia = tested on: HL-60(TB) leukemia
M14 melanoma = tested on: M14 melanoma
PC-3 prostate = tested on: PC-3 prostate
SK-MEL-2 melanoma = tested on: SK-MEL-2 melanoma
SK-MEL-28 melanoma = tested on: SK-MEL-28 melanoma
SF-295 CNS = tested on: SF-295 CNS

## C[C@@H](Oc1cc(-n2cnc3ccc(OCC4CCN(C)CC4)cc32)sc1C(N)=O)c1ccccc1Cl
DU-145 prostate
  GI50: 52.8 nM
  TGI: 141 nM
SF-539 CNS
  GI50: 107 nM
  TGI: 1620 nM
TK-10 renal
  GI50: 583 nM
  TGI: 5130 nM
MDA-MB-231 breast
  GI50: 92.4 nM
  TGI: 2150 nM
BT-549 breast
  GI50: 397 nM
  TGI: 3580 nM
A498 renal
  GI50: 92.7 nM
  TGI: 713 nM
MOLT-4 leukemia
  GI50: 58.5 nM
  TGI: 3130 nM
RPMI-8226 leukemia
  GI50: 94 nM
  TGI: 4610 nM
SW-620 colon
  GI50: 26.7 nM
  TGI: 3270 nM
UACC-62 melanoma
  GI50: 95.7 nM
  TGI: 4070 nM
UO-31 renal
  GI50: 616 nM
  TGI: 3960 nM
KM12 colon
  GI50: 50.7 nM
  TGI: 2730 nM
MCF7 breast
  GI50: 12.3 nM
  TGI: 3680 nM
LOX IMVI melanoma
  GI50: 92.6 nM
  TGI: 3600 nM
NCI/ADR-RES ovarian
  GI50: 258 nM
  TGI: 2400 nM
MDA-MB-435
  GI50: 12.6 nM
  TGI: 64.3 nM
SNB-19 CNS
  GI50: 177 nM
  TGI: 5010 nM
UACC-257 melanoma
  GI50: 117 nM
  TGI: 4990 nM
ACHN renal
  GI50: 368 nM
  TGI: 5040 nM
SNB-75 CNS
  GI50: 89.8 nM
  TGI: 1810 nM
MALME-3M melanoma
  GI50: 2930 nM
  TGI: 6950 nM
COLO 205 colon
  GI50: 16.5 nM
  TGI: 631 nM
HS 578T breast
  GI50: 75.9 nM
  TGI: 502 nM
EKVX NSCLC
  GI50: 158 nM
  TGI: 4960 nM
NCI-H226 lung
  GI50: 674 nM
  TGI: 4810 nM
U251 CNS
  GI50: 106 nM
  TGI: 3860 nM
A549 NSCLC
  GI50: 91.9 nM
  TGI: 2930 nM
NCI-H460 lung
  GI50: 84.6 nM
  TGI: 3040 nM
CAKI-1 renal
  GI50: 774 nM
  TGI: 4810 nM
HT29 colon
  GI50: 10.8 nM
  TGI: 2680 nM
OVCAR-3 ovarian
  GI50: 57.7 nM
  TGI: 2970 nM
SK-MEL-5 melanoma
  GI50: 92.9 nM
  TGI: 1260 nM
OVCAR-4 ovarian
  GI50: 477 nM
  TGI: 4810 nM
OVCAR-5 ovarian
  GI50: 113 nM
  TGI: 4190 nM
K-562 leukemia
  GI50: 43.7 nM
  TGI: 3340 nM
SR leukemia
  GI50: 44.8 nM
  TGI: 697 nM
HCC-2998 colon
  GI50: 81.5 nM
  TGI: 3270 nM
HCT-116 colon
  GI50: 61.7 nM
  TGI: 3050 nM
RXF 393 renal
  GI50: 54.6 nM
  TGI: 2760 nM
SK-OV-3 ovarian
  GI50: 101 nM
  TGI: 2930 nM
CCRF-CEM leukemia
  GI50: 9.65 nM
  TGI: 856 nM
SN12C renal
  GI50: 344 nM
  TGI: 4520 nM
NCI-H23 lung
  GI50: 103 nM
  TGI: 3640 nM
IGROV1 ovarian
  GI50: 129 nM
  TGI: 4900 nM
NCI-H522 lung
  GI50: 38.2 nM
  TGI: 147 nM
SF-268 CNS
  GI50: 112 nM
  TGI: 4070 nM
HOP-92 NSCLC
  GI50: 156 nM
  TGI: 2510 nM
HCT-15 colon
  GI50: 99.8 nM
  TGI: 3390 nM
OVCAR-8 ovarian
  GI50: 79.3 nM
  TGI: 3110 nM
T-47D breast
  GI50: 2860 nM
  TGI: 6300 nM
HOP-62 NSCLC
  GI50: 97.7 nM
  TGI: 3550 nM
786-0 renal
  GI50: 315 nM
  TGI: 3920 nM
HL-60(TB) leukemia
  GI50: 44 nM
  TGI: 543 nM
M14 melanoma
  GI50: 56.1 nM
  TGI: 3120 nM
PC-3 prostate
  GI50: 136 nM
  TGI: 4420 nM
SK-MEL-2 melanoma
  GI50: 55.9 nM
  TGI: 4130 nM
SK-MEL-28 melanoma
  GI50: 165 nM
  TGI: 4620 nM
SF-295 CNS
  GI50: 85.3 nM
  TGI: 3310 nM

Source: PubChem BioAssay (NCI)
